Source: patent US8017575B2 (priority 2004, dated 2011)
“And” between values parts separate entries of the source, which are not always exact repeats. Equal values may be shown once. Read-outs that look alike come from different tables or passages of the source.

Tests used:
[1] = tested on: insulin sensitivity; test: Rapid Insulin Sensitivity Test (RIST) before/after hemorrhage to 50 mmHg (hemorrhage-induced HDIR); assay type: in vivo, rat
Experimental: (§1) Surgical Procedures: Male Sprague Dawley rats (Charles River, St. Constant, Quebec, Canada) were housed in climate-controlled conditions for at least 6 days prior to surgical preparation. The animals were fasted for 8 hours, and then allowed ad lib access to standard rat chow for 2 hours prior to surgical preparation. […] The animals were weighed and anesthetized by an intraperitoneal injection of pentobarbital sodium (65 mg/ml, Somnotol, Biomeda-MTC Animal Health Inc., Cambridge Canada). Temperature was monitored by a rectal thermometer and kept constant at 37.5±0.5° C. by a heated surgical table and an overhead lamp. […] Animals were heparinized (100 IU/kg). Blood samples were taken by puncturing the arterial side of the arterial-venous shunt. The infusion of pharmacological agents was done by puncturing and inserting an infusion line into the silicon sleeve of the venous side of the shunt. Arterial pressure was measured by clamping the silicon sleeve on the venous side of the shunt, and measuring pressure from a side branch. A tracheotomy was performed (Micro-Renathane Tubing (095), Braintree Scientific Inc.) The left jugular vein was then cannulated with PE60 tubing in order to allow for continuous supplemental anesthetic (sodium pentobarbital, 2.16 mg/ml saline) infusion at a rate of 0.5 ml/hr/100 g of body weight. An infusion line was inserted into a silicon sleeve on the jugular supplement line for glucose administration and was controlled by a variable infusion pump (Genie, Kent Scientific Corporation, Litchfield, Mass.). The cannulation of the femoral artery and vein, the tracheotomy and the jugular vein cannulation is the standard surgical preparation.
(§2) After surgical completion, the animal was allowed to stabilize for 30 minutes, after which arterial blood samples (25 μl) were taken from the shunt and analyzed for blood glucose concentration using a glucose oxidase analyzer (Yellow Springs Instruments, Yellow Springs, Ohio). Samples were analyzed at five-minute intervals until 3 successive stable measurements were obtained. The mean of these 3 samples was used as the basal glucose level. […] At 45 seconds, a glucose infusion was initiated and adjusted to maintain euglycemia as determined by the basal glucose level. An arterial sample was taken from the arterial-venous shunt every 2 minutes during the RIST, and the glucose infusion was increased or decreased accordingly. […] The amount of glucose infused over the RIST (mg glucose/kg of body weight) is known as the RIST index.
(§3) Following the standard surgical procedure described above, a control RIST was performed. The anesthetized animal was hemorrhaged to an arterial blood pressure of 50 mmHg and held at this pressure for a 10 minute interval, by withdrawing additional blood as needed. Blood was not returned. The animal was hemorrhaged from the arterial side of the shunt, using a 23-gauge needle attached to a syringe, at a rate of 0.5 ml/min. Arterial blood pressure was measured from the vascular shunt during brief occlusion of the venous side of the shunt. Following the hemorrhage, arterial blood glucose levels were measured until they became stable for at least 15 minutes and another RIST was performed.
A control RIST was performed after a 30 minute stabilization period. […] A post hemorrhage RIST was then done as soon as a stable glycemic baseline had been established.
(§4) Effect of Phentolamine on HDIR following Hemorrhage: Following a standard surgical preparation, a laparotomy and portal puncture was performed. After a 30 minute stabilization period, a control RIST was performed. Following the RIST, phentolamine (400 μg/kg/min-IPV, 10 minute infusion at a rate of 0.025 ml/min), or cyclosomatostatin (20 μg/kg/min-IPV, continuous infusion at a rate of 0.025 ml/min) was administered. The rat was restabilized and then hemorrhaged to an arterial blood pressure of 50 mmHg and held at this pressure for a ten-minute interval.

[2] = Arterial blood glucose (glycemia) during drug infusion and hemorrhage; assay type: in vivo, rat
Experimental: as §2, §3
as §4, with “interval. […]” for “interval.”

[3] = tested on: beta receptors; test: Heart rate test of beta blockade (propranolol vs isoproterenol); assay type: in vivo, rat
Experimental: Identification of Blocking Dose of […]: A standard surgical preparation, laparotomy and portal vein puncture were performed on an anesthetized rat. […] (Heart rate was measured using a Grass AC/DC Strain gauge amplifier and National Instrument data acquisition software.) Following stabilization, isoproterenol (0.5 μg/kg/min-IV) was administered at a rate of 0.1 ml/min for 5 minutes. Heart rate and glucose levels were analyzed in the last 30 seconds of isoproterenol administration and 15 minutes subsequent to discontinuation of isoproterenol infusion.

[4] = tested on: insulin sensitivity; test: RIST during somatostatin infusion (somatostatin-induced HDIR); assay type: in vivo, rat
Experimental: as §1, with “The cannulation of the femoral artery and vein, the tracheotomy and the jugular vein cannulation is the standard surgical preparation.” left out
After surgical completion, the animal was allowed to stabilize for 30 minutes, after which arterial blood samples (25 μl) were taken from the shunt and analyzed for blood glucose concentration using a glucose oxidase analyzer (Yellow Springs Instruments, Yellow Springs, Ohio). Samples were analyzed at five-minute intervals until 3 successive stable measurements were obtained. […] At 45 seconds, a glucose infusion was initiated and adjusted to maintain euglycemia as determined by the basal glucose level. […]

[5] = for Volume of Distribution, Percent Change (reduction): SMA ligation vs control
Experimental: Following the hemorrhage, another RIST was performed. […] The samples were centrifuged and the plasma was frozen immediately on dry ice, and stored at −80° C.
A snare was inserted around the artery so that it could be occluded. The animal was allowed to rest for a 30 minute interval.

[6] = SMA ligation series, SMA ligated
[7] = hemorrhage series, control, insulin 50 mU/kg 30 second bolus

**Q.** Which “prevention of HDIR subsequent to hemorrhage” value ([1]; Example 8: propranolol 1.5 mg/kg-IPV) does the source give for `CC(C)NCC(O)COc1cccc2ccccc12` (stereo not shown) [propranolol] here?
**A.** The value was “unable to prevent HDIR”.

**Q.** And the “increase in glycemia following hemorrhage” value ([2]; propranolol 1.5 mg/kg-IPV prior to hemorrhage)?
**A.** The value was 17.4±3.3% and 17.4%.

**Q.** And the “block of the acceleration in heart rate caused by isoproterenol” value ([3]; propranolol 1.5 mg/kg)?
**A.** The value was “completely block”.

**Q.** What about the “reduction in basal heart rate” value ([3]; propranolol 1.5 mg/kg-IPV) of the same molecule?
**A.** The value was 70.6±1.3 beats/min.

**Q.** With cyclosomatostatin as the molecule, how does the “post hemorrhage RIST index” value ([1]; Example 9: cyclosomatostatin 20 μg/kg/min-IPV continuous, started prior to hemorrhage, initial RIST 214.3±8.8, n=5) read?
**A.** Its value is 217.5±8.5 mg of glucose/kg.

**Q.** And the “prevention of HDIR following hemorrhage” value ([1]; Example 9: cyclosomatostatin 20 μg/kg/min-IPV prior to hemorrhage, n=5)?
**A.** Its value is “prevented the occurrence of HDIR”.

**Q.** What about the “prevention of somatostatin-induced HDIR” value ([4]; Example 6: cyclosomatostatin 20 μg/kg/min-IPV continuous infusion, n=3) of the same molecule?
**A.** The value was “significantly prevented the occurrence of HDIR”.

**Q.** And the “cyclosomatostatin and somatostatin RIST index” value ([4]; Example 6: cyclosomatostatin 20 μg/kg/min-IPV with somatostatin 0.16 μg/kg/min, control 215.9±7.4, n=3)?
**A.** The value was 213.1±8.6 mg of glucose/kg.

**Q.** What about the “blockade of somatostatin induced HDIR” value ([4]; pilot studies, cyclosomatostatin 10 μg/kg/min) of the same molecule?
**A.** Its value is “did not produce a full blockade”.

**Q.** What about the “increase in glycemia following hemorrhage” value ([2]; cyclosomatostatin 20 μg/kg/min-IPV, infused 67.2±4.8 minutes) of the same molecule?
**A.** Its value is 19.9±2.0%.

**Q.** Which “heart rate (remained at original baseline level)” value ([3]; isoproterenol 0.5 μg/kg/min-IV subsequent to propranolol 1.5 mg/kg-IPV) does the source give for `CC(C)NCC(O)c1ccc(O)c(O)c1` (stereo not shown) [isoproterenol] here?
**A.** Its value is 415.3±5.9 beats/min.

**Q.** And the “increase in basal heart rate” value ([3]; isoproterenol alone)?
**A.** Its value is 125.2±9.8 beats/min.

**Q.** For “insulin: Human insulin (Humulin R) purchased from Eli Lilly”, which Clearance [5, 6] is on record?
**A.** The Clearance was 0.667 ± 0.0167 mL/min/kg.

**Q.** And the “Volume of Distribution” value [5, 6]?
**A.** The value was 0.03 ± 0.003 L/kg.

**Q.** What about the “Volume of Distribution, Percent Change (reduction)” value [5] of the same molecule?
**A.** The value was 69.4±2.2%.

**Q.** What about the “Volume of Distribution, Percent Change (reduction)” value ([5]; listed as Insulin) of the same molecule?
**A.** Its value is 69.39%.

**Q.** And the “insulin concentration at the 1 minute mark of the RIST” value ([5]; after hemorrhage, n=4)?
**A.** The value was 27.5 ± 3.8 µg/L.

**Q.** And the “time for insulin to decrease to baseline” value ([5]; both control and hemorrhage RISTs, 30 second bolus 50 mU/kg)?
**A.** Its value is 5 min.

**Q.** What about the Clearance [5, 7] of the same molecule?
**A.** Its Clearance is 1.03 ± 0.15 mL/min/kg.

**Q.** And the “Volume of Distribution” value [5, 7]?
**A.** Its value is 0.056 ± 0.012 L/kg.

**Q.** For `Cc1ccc(N(CC2=NCCN2)c2cccc(O)c2)cc1` [phentolamine], which “prevention of HDIR subsequent to hemorrhage” value ([1]; Example 7: phentolamine 400 μg/kg/min-IPV) is on record?
**A.** The value was “unable to prevent HDIR”.

**Q.** And the “post hemorrhage RIST index” value ([1]; Example 7: phentolamine 400 μg/kg/min-IPV prior to hemorrhage, control 213.1±8.4, n=7)?
**A.** The value was 145.4±9.2 mg of glucose/kg.

**Q.** What about the “decrease in insulin sensitivity (RIST index) between control and post hemorrhage RIST” value ([1]; Example 7: phentolamine 400 μg/kg/min-IPV prior to hemorrhage, n=7) of the same molecule?
**A.** The value was 31.8%.

**Q.** And the “decrease in insulin sensitivity (RIST index) between control and post hemorrhage RIST” value ([1]; Example 7: phentolamine 400 μg/kg/min-IPV prior to hemorrhage, n=7, listed as Phentolamine)?
**A.** Its value is 31.8% and 31.8±5.5%.

**Q.** And the “increase in glycemia during hemorrhage” value ([2]; phentolamine 400 μg/kg/min-IPV prior to hemorrhage (18.2±4.2% without agents))?
**A.** The value was 1.1±0.9% and 1.1%.
